Source: PubChem BioAssay AID2060604 (Molecular Pharmacology Branch, DTP, NCI, 2025)
Values joined by “and” are separate entries in the source; they are usually repeats but may differ in a detail not shown here. Identical values can stand only once.

Test system: 379773-124-R-J2-PDC complex spheroids, viability % test/control
Assay: Anticancer human tumor 379773-124-R-J2-PDC patient-derived endometrial carcinoma cell line growth inhibition [CLK]
Conditions: for viability, T/C: stronger effect = lower value
In short: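 Multi-cell-type spheroids combined patient-derived tumor cells with HUVEC endothelial cells and human mesenchymal stem cells. Paired agents were dosed in half-log steps down from about clinical Cmax, or from 10 microM where Cmax was unknown.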

[1] = curve of first compound, second compound 0.0316 µM
[2] = curve of first compound, second compound 0.1 µM
[3] = curve of first compound, second compound 0.316 µM
[4] = curve of first compound, second compound 1 µM
[5] = curve of first compound, second compound 3.16 µM
[6] = curve of first compound, second compound 10 µM
[7] = second compound 0.0316 µM, first compound 0.0316 µM
[8] = second compound 0.0316 µM, first compound 0.1 µM
[9] = second compound 0.0316 µM, first compound 0.316 µM
[10] = second compound 0.0316 µM, first compound 1 µM
[11] = second compound 0.1 µM, first compound 0.0316 µM
[12] = second compound 0.1 µM, first compound 0.1 µM
[13] = second compound 0.1 µM, first compound 0.316 µM
[14] = second compound 0.1 µM, first compound 1 µM
[15] = second compound 0.316 µM, first compound 0.0316 µM
[16] = second compound 0.316 µM, first compound 0.1 µM
[17] = second compound 0.316 µM, first compound 0.316 µM
[18] = second compound 0.316 µM, first compound 1 µM
[19] = second compound 1 µM, first compound 0.0316 µM
[20] = second compound 1 µM, first compound 0.1 µM
[21] = second compound 1 µM, first compound 0.316 µM
[22] = second compound 1 µM, first compound 1 µM
[23] = second compound 3.16 µM, first compound 0.0316 µM
[24] = second compound 3.16 µM, first compound 0.1 µM
[25] = second compound 3.16 µM, first compound 0.316 µM
[26] = second compound 3.16 µM, first compound 1 µM
[27] = second compound 10 µM, first compound 0.0316 µM
[28] = second compound 10 µM, first compound 0.1 µM
[29] = second compound 10 µM, first compound 0.316 µM
[30] = second compound 10 µM, first compound 1 µM
[31] = second compound 0.0316 µM, first compound 3.16 µM
[32] = second compound 0.0316 µM, first compound 10 µM
[33] = second compound 0.1 µM, first compound 3.16 µM
[34] = second compound 0.1 µM, first compound 10 µM
[35] = second compound 0.316 µM, first compound 3.16 µM
[36] = second compound 0.316 µM, first compound 10 µM
[37] = second compound 1 µM, first compound 3.16 µM
[38] = second compound 1 µM, first compound 10 µM
[39] = second compound 3.16 µM, first compound 3.16 µM
[40] = second compound 3.16 µM, first compound 10 µM
[41] = second compound 10 µM, first compound 3.16 µM
[42] = second compound 10 µM, first compound 10 µM
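Note: compound exposure lasted seven days before the viability readout.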
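Throughout, for viability, T/C: 100% = DMSO vehicle control wells.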

## COc1c(OCCCN2CCOCC2)ccc2c3n(c(=NC(=O)c4cnc(N)nc4)nc12)CCN3 + CN1CCN(c2cc(C(=O)Nc3cc4cc(-c5cnn(C)c5)ccc4cn3)ccn2)CC1
[1]
  IC50: 70.5 nM
[2]
  IC50: 50.6 nM
[3]
  IC50: < 3.16 nM
[4]
  IC50: < 3.16 nM
[5]
  IC50: < 3.16 nM
[6]
  IC50: < 3.16 nM
Second compound 0.0316 µM, first compound 0.00316 µM
  viability, T/C: 94.2%
Second compound 0.0316 µM, first compound 0.01 µM
  viability, T/C: 92.8%
[7]
  viability, T/C: 87.6%
[8]
  viability, T/C: 33.5%
[9]
  viability, T/C: 10.9%
[10]
  viability, T/C: 2.85%
Second compound 0.1 µM, first compound 0.00316 µM
  viability, T/C: 89.6%
Second compound 0.1 µM, first compound 0.01 µM
  viability, T/C: 74.7%
[11]
  viability, T/C: 65.4%
[12]
  viability, T/C: 31.4%
[13]
  viability, T/C: 6.86%
[14]
  viability, T/C: 2.02%
Second compound 0.316 µM, first compound 0.00316 µM
  viability, T/C: 21%
Second compound 0.316 µM, first compound 0.01 µM
  viability, T/C: 23.7%
[15]
  viability, T/C: 18.5%
[16]
  viability, T/C: 6.99%
[17]
  viability, T/C: 3.33%
[18]
  viability, T/C: 1.61%
Second compound 1 µM, first compound 0.00316 µM
  viability, T/C: 0.15%
Second compound 1 µM, first compound 0.01 µM
  viability, T/C: 0.35%
[19]
  viability, T/C: 0.15%
[20]
  viability, T/C: 0.11%
[21]
  viability, T/C: 0.09%
[22]
  viability, T/C: 0.08%
Second compound 3.16 µM, first compound 0.00316 µM
  viability, T/C: 0.07%
Second compound 3.16 µM, first compound 0.01 µM
  viability, T/C: 0.45%
[23]
  viability, T/C: 0.29%
[24]
  viability, T/C: 0.11%
[25]
  viability, T/C: 0.11%
[26]
  viability, T/C: 0.1%
Second compound 10 µM, first compound 0.00316 µM
  viability, T/C: 0.16%
Second compound 10 µM, first compound 0.01 µM
  viability, T/C: 0.13%
[27]
  viability, T/C: 0.92%
[28]
  viability, T/C: 0.79%
[29]
  viability, T/C: 0.79%
[30]
  viability, T/C: 0.15%

## CC1(C)CCC(CN2CCN(c3ccc(C(=O)NS(=O)(=O)c4ccc(NCC5CCOCC5)c([N+](=O)[O-])c4)c(Oc4cnc5[nH]ccc5c4)c3)CC2)=C(c2ccc(Cl)cc2)C1
Compound 0.0316 µM
  viability, T/C: 89.8% and 83.7%
Compound 0.1 µM
  viability, T/C: 92.6% and 89.4%
Compound 0.316 µM
  viability, T/C: 96.8% and 94%
Compound 1 µM
  viability, T/C: 96.9% and 111%
Compound 3.16 µM
  viability, T/C: 77.8% and 79.7%
Compound 10 µM
  viability, T/C: 3.91% and 4.86%
Curve of compound
  IC50: 4880 nM and 4990 nM

## Cn1ncnc1[C@H]1c2n[nH]c(=O)c3cc(F)cc(c23)N[C@@H]1c1ccc(F)cc1
Compound 0.000316 µM
  viability, T/C: 97.3% and 82.2%
Compound 0.001 µM
  viability, T/C: 100% and 79.8%
Compound 0.00316 µM
  viability, T/C: 86.3% and 79.5%
Compound 0.01 µM
  viability, T/C: 86.8% and 79.1%
Compound 0.0316 µM
  viability, T/C: 72.3% and 49%
Compound 0.1 µM
  viability, T/C: 38.9% and 26.1%
Curve of compound
  IC50: 67.6 nM and 30.5 nM

## CC1COCCN1c1cc(C2(S(C)(=N)=O)CC2)nc(-c2ccnc3[nH]ccc23)n1 (configuration not stated) + CNC(=O)c1ccc(Nc2nc(OC3CCCC3)c3c(-c4ccc5nc(C)oc5c4)c[nH]c3n2)c(OC)c1
[1]
  IC50: 1870 nM
[2]
  IC50: < 31.6 nM
[3]
  IC50: < 31.6 nM
[4]
  IC50: < 31.6 nM
[5]
  IC50: < 31.6 nM
[6]
  IC50: < 31.6 nM
[7]
  viability, T/C: 78%
[8]
  viability, T/C: 83.8%
[9]
  viability, T/C: 86.2%
[10]
  viability, T/C: 67.2%
[31]
  viability, T/C: 34.5%
[32]
  viability, T/C: 9.32%
[11]
  viability, T/C: 42.7%
[12]
  viability, T/C: 44.6%
[13]
  viability, T/C: 36.1%
[14]
  viability, T/C: 42.7%
[33]
  viability, T/C: 26%
[34]
  viability, T/C: 9.26%
[15]
  viability, T/C: 42.6%
[16]
  viability, T/C: 38.5%
[17]
  viability, T/C: 39.1%
[18]
  viability, T/C: 41.5%
[35]
  viability, T/C: 30.1%
[36]
  viability, T/C: 12.7%
[19]
  viability, T/C: 40.6%
[20]
  viability, T/C: 36.1%
[21]
  viability, T/C: 37%
[22]
  viability, T/C: 36.5%
[37]
  viability, T/C: 20.5%
[38]
  viability, T/C: 5.75%
[23]
  viability, T/C: 27.9%
[24]
  viability, T/C: 34%
[25]
  viability, T/C: 31.9%
[26]
  viability, T/C: 31.4%
[39]
  viability, T/C: 21.4%
[40]
  viability, T/C: 5.79%
[27]
  viability, T/C: 29.7%
[28]
  viability, T/C: 40.1%
[29]
  viability, T/C: 28.9%
[30]
  viability, T/C: 24.9%
[41]
  viability, T/C: 24.2%
[42]
  viability, T/C: 4.37%

## Nc1ccccc1NC(=O)c1ccc(CNC(=O)OCc2cccnc2)cc1 + CNC(=O)c1ccc(Nc2nc(OC3CCCC3)c3c(-c4ccc5nc(C)oc5c4)c[nH]c3n2)c(OC)c1
[1]
  IC50: 1820 nM
[2]
  IC50: < 31.6 nM
[3]
  IC50: < 31.6 nM
[4]
  IC50: < 31.6 nM
[5]
  IC50: < 31.6 nM
[6]
  IC50: < 31.6 nM
[7]
  viability, T/C: 87.7%
[8]
  viability, T/C: 81.9%
[9]
  viability, T/C: 95.7%
[10]
  viability, T/C: 70.6%
[31]
  viability, T/C: 29.8%
[32]
  viability, T/C: 7.39%
[11]
  viability, T/C: 32.2%
[12]
  viability, T/C: 40.1%
[13]
  viability, T/C: 36.5%
[14]
  viability, T/C: 27.8%
[33]
  viability, T/C: 11.5%
[34]
  viability, T/C: 5.65%
[15]
  viability, T/C: 44.5%
[16]
  viability, T/C: 40.2%
[17]
  viability, T/C: 27.7%
[18]
  viability, T/C: 25.4%
[35]
  viability, T/C: 15.3%
[36]
  viability, T/C: 4.66%
[19]
  viability, T/C: 39.1%
[20]
  viability, T/C: 29.2%
[21]
  viability, T/C: 28.4%
[22]
  viability, T/C: 20.4%
[37]
  viability, T/C: 14.3%
[38]
  viability, T/C: 3.91%
[23]
  viability, T/C: 31.8%
[24]
  viability, T/C: 30.1%
[25]
  viability, T/C: 25.1%
[26]
  viability, T/C: 21.4%
[39]
  viability, T/C: 12.9%
[40]
  viability, T/C: 3.52%
[27]
  viability, T/C: 38.7%
[28]
  viability, T/C: 30.2%
[29]
  viability, T/C: 25.2%
[30]
  viability, T/C: 17.3%
[41]
  viability, T/C: 12.2%
[42]
  viability, T/C: 2.97%

## CC1(C)CCC(CN2CCN(c3ccc(C(=O)NS(=O)(=O)c4ccc(NCC5CCOCC5)c([N+](=O)[O-])c4)c(Oc4cnc5[nH]ccc5c4)c3)CC2)=C(c2ccc(Cl)cc2)C1 + CNC(=O)c1ccc(Nc2nc(OC3CCCC3)c3c(-c4ccc5nc(C)oc5c4)c[nH]c3n2)c(OC)c1
[1]
  IC50: 4460 nM
[2]
  IC50: < 31.6 nM
[3]
  IC50: < 31.6 nM
[4]
  IC50: < 31.6 nM
[5]
  IC50: < 31.6 nM
[6]
  IC50: < 31.6 nM
[7]
  viability, T/C: 68.1%
[8]
  viability, T/C: 79.2%
[9]
  viability, T/C: 76.3%
[10]
  viability, T/C: 83.6%
[31]
  viability, T/C: 70.9%
[32]
  viability, T/C: 0.9%
[11]
  viability, T/C: 42.1%
[12]
  viability, T/C: 38.5%
[13]
  viability, T/C: 33.8%
[14]
  viability, T/C: 38.1%
[33]
  viability, T/C: 32.5%
[34]
  viability, T/C: 1.18%
[15]
  viability, T/C: 35.6%
[16]
  viability, T/C: 33.2%
[17]
  viability, T/C: 33.7%
[18]
  viability, T/C: 44.9%
[35]
  viability, T/C: 32%
[36]
  viability, T/C: 1.34%
[19]
  viability, T/C: 32%
[20]
  viability, T/C: 31.9%
[21]
  viability, T/C: 30.8%
[22]
  viability, T/C: 38.6%
[37]
  viability, T/C: 28.6%
[38]
  viability, T/C: 2.29%
[23]
  viability, T/C: 31.2%
[24]
  viability, T/C: 33.2%
[25]
  viability, T/C: 42%
[26]
  viability, T/C: 31.2%
[39]
  viability, T/C: 32.7%
[40]
  viability, T/C: 0.72%
[27]
  viability, T/C: 30.8%
[28]
  viability, T/C: 25.5%
[29]
  viability, T/C: 30.7%
[30]
  viability, T/C: 32.7%
[41]
  viability, T/C: 29.3%
[42]
  viability, T/C: 1.59%
